The values below come from patent US20080260639A1, “PREPARATION AND METHOD UTILIZING RADIOLABELED CHLOROTOXIN” (priority 2004, published 2008).

A short description of data set [1]: Storage stability of I-131 MIBG: percent of iodine remaining bound to the MIBG. Type of data set: physicochemical. To be noted: for percent of iodine remaining bound to the MIBG: 1 mCi per vial. The source says: The radioactive diagnostic radiopharmaceutical in this invention requires no further cold or refrigerated storage, including with respect to shipping, subsequent to stabilization. The lyophilized radiopharmaceutical composition is reconstituted “on site” for administration to patients by the addition of a suitable diluent to bring the radiopharmaceutical complex into solution at the time of administration to the patient. For administration, the I-123 labeled MIBG in the vial must be reconstituted. Because of the minute quantity of material, the vial of radionuclide complex, in the preferred mode the I-123 labeled MIBG will appear empty. The MIBG ligand is stable for several days because of the absence of water which is the primary substance from which free radicals are generated by gamma ray collisions with water molecules. The gamma rays are being emitted by the radionuclide, that is the I-123. The health care provider would add up to 2 ml. of sterile normal saline. The desired dose would be withdrawn and measured in a dose calibrator of a type manufactured by Capintec of Montville, N.J. If the glass vial is measured in the dose calibrator, the person measuring the dose must recognize that the glass vial will decrease the apparent activity. Upon calibration of the desired dose, the I-123 MIBG now re-dissolved in the solution is promptly administered to the patient. The advantages are that the flash freezing and lowering of vapor pressure result in quick formation and evaporation or sublimation (evaporation from ice to water vapour (a gas)) of water from the I-123 MIBG. The I-123 MIBG need not be shipped frozen in dry ice nor need it be shipped for overnight delivery. Shipping in dry ice over a weekend is generally not commercially practical. The I-123 MIBG can be shipped over the weekend and be used on Monday while simply maintaining it at room temperature or below. In order to establish the advantages of the novel process and resulting composition, a series of tests were run utilizing meta iodo benzyl guanidine (MIBG) in which the radionuclide I-131 was the iodine in the MIBG.
The MIBG was prepared as follows: eight vials were prepared of MIBG in solution with a radioactive concentration of MIBG of 1 mCi per vial. The MIBG in six of those vials were then stabilized and lyophilized according to the process described in this invention. One vial was frozen and maintained at a temperature of −10 degrees, and another vial was simply refrigerated at approximately 5 degrees.
Six vials were prepared according to the process in this invention in order to enable several to be reconstituted from the lyophilized state and their activity tallied.
The radioactive concentration of MIBG per vial was 1 mCi per vial.
The results showing the percent of iodine remaining bound to the MIBG are set forth in table I. One each of the vials was reconstituted after 24, 48, 72 and 168 hours respectively.

Data set [2] in a line: Storage stability of 1-131 Hippuran: percent remaining bound. Type of data set: physicochemical. To be noted: 1 mCi per vial. The method, then:
As another example, 1-131 Hippuran was prepared. The 1-131 Hippuran was prepared as follows: 9 vials were prepared of 1-131 Hippuran in solution with a radioactive concentration of MIBG of 1 mCi per vial. Each vial had 4 cc. The 1-131 in seven of those vials was then stabilized and lyophilized according to the process described in this invention. One vial was frozen and maintained at a temperature of −10 degrees, and another vial was maintained room temperature. Room temperature was selected because Hippuran is thought to be stable at room temperature even in conjunction with a radioisotope. […]

Turning to `N=C(N)NCc1cccc([131I])c1` [MIBG, meta iodo benzyl guanidine], the “percent of iodine remaining bound to the MIBG” value in data set [1] (Frozen −10°, 24 hours) worked out at 94%; in data set [1] (Frozen −10°, 48 hours), 91%; in data set [1] (Frozen −10°, 72 hours), 84%; in data set [1] (Frozen −10°, 168 hours (1 wk.)) it was 72%; in data set [1] (Lyophilized and stabilized per invention, stored at room temp., 24 hours) it was 97%; in data set [1] (Refrigerated ~+5°, 24 hours) it was 92%. For the same compound, the “percent of iodine remaining bound to the MIBG” value in data set [1] (Refrigerated ~+5°, 48 hours) worked out at 85%; in data set [1] (Refrigerated ~+5°, 72 hours), 77%; in data set [1] (Refrigerated ~+5°, 168 hours (1 wk.)) it was 55%. The activity on storage entry in data set [1] (not stabilized and lyophilized per this invention) is on record as “deteriorated sharply”.

Regarding `O=C([O-])CNC(=O)c1ccccc1[131I].[Na+]` [Hippuran], the “percent of Hippuran remaining bound to the I-123” value in data set [2] (Frozen −10°, 0 hours) came out at 98%; in data set [2] (Frozen −10°, 24 hrs), 97.8%; in data set [2] (Frozen −10°, 48 hrs), 97%; in data set [2] (Frozen −10°, 72 hrs) it was 94%; in data set [2] (Frozen −10°, 96 hrs), 92.5%; in data set [2] (Frozen −10°, 120 hrs), 91%. The “percent of Hippuran remaining bound to the I-123” value was 98% in data set [2] (Lyophilized and stabilized per invention, stored at room temp., 0 hours); 98.4% in data set [2] (Lyophilized and stabilized per invention, stored at room temp., 24 hrs); 98.6% in data set [2] (Lyophilized and stabilized per invention, stored at room temp., 48 hrs); 98% in data set [2] (Lyophilized and stabilized per invention, stored at room temp., 72 hrs); 98.4% in data set [2] (Lyophilized and stabilized per invention, stored at room temp., 96 hrs); 98.5% in data set [2] (Lyophilized and stabilized per invention, stored at room temp., 120 hrs). The “percent of Hippuran remaining bound to the I-123” value in data set [2] (Room Temp. (solution, not lyophilized), 0 hours) came out at 98%; in data set [2] (Room Temp. (solution, not lyophilized), 24 hrs), 96%; in data set [2] (Room Temp. (solution, not lyophilized), 48 hrs), 95%; in data set [2] (Room Temp. (solution, not lyophilized), 72 hrs), 94.5%; in data set [2] (Room Temp. (solution, not lyophilized), 96 hrs) it was 92%; in data set [2] (Room Temp. (solution, not lyophilized), 120 hrs), 90%.
